Experiment [1] concerns Mycobacterium tuberculosis. Kind of experiment: MMV: Screen against Mtb, single point, non replicating, at 25uM. The format is functional.
In experiment [2] the test system is Mycobacterium tuberculosis. Kind of experiment: MMV: Screen against Mtb, single point, replicating, at 25uM. The format is functional.

Structures are written as SMILES.

Usually inhibition stands for the change of the read-out against control, counted positive when it falls. `CCN1CCCC1CNc1[nH]cnc2c3cc(Cl)ccc3nc1-2` (stereo unspecified): the inhibition at 25 µM came to 4.53% in experiment [1] and 0.0616% in experiment [2].
On the same counts, the results for `CCN(CC)CCNc1ncnc2c1[nH]c1ccc(Cl)cc12` are 18.1% and 15.4%.
For the compound `CCOC(=O)c1cnc2ccc(CC)cc2c1O`, the inhibition at 25 µM in experiment [1] turned out to be 7.14%; in experiment [2], 12.5%.
On the same counts, the results for `Cc1ccc(-c2cc3c(nn2)-c2ccccc2C3=O)cc1` are 17.3% and 41.8%.
On the same counts, the results for `COc1ccc(-n2ccnc2SCC(=O)Nc2cc(C)ccc2C)c(OC)c1` are 8.89% and 2.95%.
As for `CCN1CCN(Cc2ccc(NC(=O)c3cc4ccc5cccnc5c4[nH]3)cc2)CC1`, the inhibition at 25 µM in experiment [1] was found to be 3.13%; in experiment [2], 18.3%.
Consider `c1ccc(-c2ccc(-c3nc4ccccc4[nH]3)cc2)cc1`, for which the inhibition at 25 µM in experiment [1] is 0.513%; in experiment [2], 20.6%.
`CCC(C)NCC(O)(c1ccc(Cl)cc1)c1ccc(Cl)cc1` (stereo unspecified): the inhibition at 25 µM in experiment [1] is 10.6%; in experiment [2] it was 17.4%.
`CCC(c1ccccc1)c1nn2c(-c3cccs3)nnc2s1` (stereo unspecified): the inhibition at 25 µM in experiment [1] was determined as 20.8%; in experiment [2], 19.3%.
On the same counts, the results for `CCOc1cc2c(cc1OCC)C(c1cc(OC)c(O)cc1Cl)NCC2` (stereo unspecified) are 13.6% and 23.3%.
Take `COCCNC(=O)c1ccc(OC2CCN(Cc3ccc(F)c(F)c3)CC2)c(Cl)c1`: the inhibition at 25 µM in experiment [1] is 14.1%; in experiment [2], 12.7%.
On the same counts, the results for `COc1cccc(C=Cc2nc(=O)c3ccccc3o2)c1OC` are 11.5% and 40.6%.
On the same counts, the results for `CCCN(CCC)CC(O)COc1ccccc1C(=O)Nc1ccccc1` (stereo unspecified) are 17.1% and 20.9%.
On the same counts, the results for `COc1ccc(C(=O)Nc2nonc2-c2ccc(OC)c(OC)c2)cc1Cl` are 5.57% and 3.86%.
`COCCN(C(=O)Cc1cccs1)C(C(=O)NCc1ccc(OC)cc1)c1ccc(C(C)C)cc1` (stereo unspecified): the inhibition at 25 µM in experiment [1] was determined as 31.4%; in experiment [2] it was 10.2%.
Consider `COc1ccc2c(c1)OC(O)(C(F)(F)C(F)(F)F)CC2=O` (stereo unspecified), for which the inhibition at 25 µM in experiment [1] was determined as 20.1%; in experiment [2] it was 23.4%.
With `FC(F)(F)c1cccc(CNC2CCN(CCc3ccccc3)CC2)c1`, the inhibition at 25 µM in experiment [1] worked out at 2.96%; in experiment [2], 22.8%.
On the same counts, the results for `Oc1ccc(Cl)cc1CNc1nc2ccccc2[nH]1` are 4.53% and 38.6%.
On the same counts, the results for `CCOc1cc(Cl)c(C(C)NC(=O)c2ccccc2)cc1OCC` (stereo unspecified) are 2.61% and 10.4%.
As for `C=CC12CCN(CC1)C(C(O)c1ccnc3ccc(OC)cc13)C2` (stereo unspecified), the inhibition at 25 µM was determined as 18.8% in experiment [1] and 27.2% in experiment [2].
Turning to `Cc1ccc(-c2cc3nc4c(c(O)n3n2)CCCC4)cc1`, the values for the inhibition at 25 µM in experiment [1] and in experiment [2] were 21.5% and 14%, respectively.
On the same counts, the results for `O=C(c1ccccc1F)N(Cc1ccc(Cl)cc1)c1ccccn1` are 5.4% and 9.78%.
With `O=C(Nc1ccc(Cl)cc1)N1CCN(c2ccc3nncn3n2)CC1`, the results for the inhibition at 25 µM in experiment [1] and in experiment [2] were -3.33% and 12.8%, respectively.
On the same counts, the results for `c1ccc2cc3c(Nc4ccc(N5CCOCC5)cc4)ccnc3cc2c1` are 0.164% and 19.5%.
Consider `CCCCNCC(O)(c1ccc(Cl)cc1)c1ccc(Cl)cc1`, for which the inhibition at 25 µM in experiment [1] worked out at 9.41%; in experiment [2], 16.9%.
On the same counts, the results for `Cc1cc(C)c2c(c1)OCN(Cc1ccccc1Cl)C2` are 12% and 9.78%.
As for `COc1ccccc1NC1=C(N2CCCCC2)C(=O)c2ccccc2C1=O`, the values for the inhibition at 25 µM in experiment [1] and in experiment [2] were 24.8% and 13.3%, respectively.
On the same counts, the results for `CCOC(=O)c1cn(CC)c2cc(N3CCCCC3)c(F)cc2c1=O` are 6.27% and 45%.
On the same counts, the results for `CCCc1cc(O)c2c3c(c(=O)oc2c1)CN(C)CC3` are 14.1% and 16%.
On the same counts, the results for `Cc1cc(NC(=O)C2c3ccccc3C(=O)N(CC(C)C)C2c2cccs2)no1` (stereo unspecified) are 13.1% and 12.2%.
`CCn1c(SCC(=O)Nc2cc(C(F)(F)F)ccc2Cl)nc2ccccc2c1=O`: the inhibition at 25 µM worked out at 16% in experiment [1] and 2.95% in experiment [2].
With `Cc1ccc(Cn2c(N3CCC(C(=O)NCc4cccs4)CC3)nc3ccccc32)cc1`, the figures for the inhibition at 25 µM in experiment [1] and in experiment [2] were 5.22% and 44.4%, respectively.
On the same counts, the results for `O=C(Nc1ccc(Cl)cc1C(=O)Nc1ccncc1)c1ccc(Cl)cc1Cl` are 27.7% and 30%.
On the same counts, the results for `CCOc1ccc(-c2nonc2NC(=O)c2cccc(C)c2)cc1OCC` are 9.24% and 2.34%.
With `COc1ccc2c(=O)cc(C(Cl)(Cl)Cl)oc2c1`, the inhibition at 25 µM in experiment [1] is 18.3%; in experiment [2], 25.3%.
Turning to `CCOc1ccc(/C=C/c2nc(=O)c3ccccc3o2)cc1`, the inhibition at 25 µM in experiment [1] was found to be 12%; in experiment [2] it was 18.9%.
In the case of `CC(O)(c1ccc(Cl)cc1)C(CN1CCCCC1)c1ccccc1` (stereo unspecified), the inhibition at 25 µM in experiment [1] was 11.2%; in experiment [2] it was 8.72%.
On the same counts, the results for `CCCCc1ccc(NS(=O)(=O)c2cc3c4c(c2)CCN4C(=O)CC3)cc1` are -2.45% and 7.2%.
Take `CCOc1ccccc1CNC(=O)C1c2ccccc2C(=O)N(CC(C)C)C1c1cccs1` (stereo unspecified): the inhibition at 25 µM in experiment [1] was determined as 10.8%; in experiment [2], 43.5%.
On the same counts, the results for `COc1ccc(-c2nc3cc(Cc4ccc5[nH]c(-c6ccc(OC)cc6)nc5c4)ccc3[nH]2)cc1` are 29.3% and 41.7%.
On the same counts, the results for `CCOC(=O)c1ccc2nc(-c3ccccc3)cc(O)c2c1` are 15.5% and 14.6%.
On the same counts, the results for `Cc1cc(Nc2ccc(Cl)cc2)n2nc(C(F)(F)F)nc2n1` are 10.3% and 9.63%.
With `CCCCCCOC(=O)C1=C(C)NC(=O)NC1c1ccccc1F` (stereo unspecified), the values for the inhibition at 25 µM in experiment [1] and in experiment [2] were 6.8% and 9.78%, respectively.
On the same counts, the results for `COc1ccc(C2Sc3ccccc3N=C3C2=C(O)c2ccccc23)cc1` (stereo unspecified) are -1.58% and 8.41%.
Consider `Cc1ccc(N2C3c4ccccc4N(S(=O)(=O)c4ccc(C)cc4)C2c2ccccc2N3S(=O)(=O)c2ccc(C)cc2)cc1`, for which the inhibition at 25 µM in experiment [1] is 18%; in experiment [2], 4.16%.
On to `CC1CCCCN1CCCNC(=O)c1ccc2c(c1)sc1nc(-c3ccc(F)cc3)cn12` (stereo unspecified), for which the figures for the inhibition at 25 µM in experiment [1] and in experiment [2] were 9.76% and 33.2%, respectively.
On the same counts, the results for `COc1ccc(NC(=O)C2c3ccccc3C(=O)N(CC(C)C)C2c2cccs2)cc1` (stereo unspecified) are 3.3% and 4.77%.
Regarding `c1ccc(Cn2c(N=Nc3c(Nc4ccccc4)ccc4ccccc34)nc3ccccc32)cc1`, the inhibition at 25 µM in experiment [1] was 18.7%; in experiment [2] it was 14.9%.

(Values after ChEMBL document CHEMBL2094260, “Malaria Box Tuberculosis Screening Data”.)
